Measurements taken from ChEMBL document CHEMBL5543097, “Synthesis and structure-activity relationships of novel 14-membered 2-fluoro ketolides with structural modification at the C11 position” (Eur J Med Chem, 2024).
≈ marks a conversion by molar mass, not a printed value.

What was measured:
[1] = tested on: Streptococcus pneumoniae; test: Antibacterial activity against erythromycin-resistant Streptococcus pneumoniae SPN19-8 assessed as inhibition of visible bacterial growth incubated for 18 hrs by broth microdilution method; format: functional
[2] = tested on: Streptococcus agalactiae; test: Antibacterial activity against erythromycin-resistant Streptococcus agalactiae 19-8 assessed as inhibition of visible bacterial growth incubated for 18 hrs by broth microdilution method; format: functional
[3] = Cytotoxicity against mouse AML12 cells assessed as reduction in cell viability incubated for 48 hrs by MTT assay; format: toxicity, cell-based
[4] = tested on: Streptococcus pneumoniae; test: Antibacterial activity against erythromycin-resistant Streptococcus pneumoniae SPN19-14 assessed as inhibition of visible bacterial growth incubated for 18 hrs by broth microdilution method; format: functional
[5] = tested on: Haemophilus influenzae; test: Antibacterial activity against Haemophilus influenzae HIN 20-18 assessed as inhibition of bacterial growth incubated for 20 to 24 hrs by CLSI based broth microdilution method; format: functional; settings: time 20-24 hrs
[6] = tested on: Staphylococcus epidermidis; test: Antibacterial activity against erythromycin-resistant Staphylococcus epidermidis 19-9 assessed as inhibition of visible bacterial growth incubated for 18 hrs by broth microdilution method; format: functional
[7] = tested on: Moraxella catarrhalis; test: Antibacterial activity against Moraxella catarrhalis BCA 19-31 assessed as inhibition of bacterial growth incubated for 24 hrs by CLSI based broth microdilution method; format: functional; settings: BCA 19-31, 24 h
[8] = tested on: Staphylococcus epidermidis; test: Antibacterial activity against erythromycin-resistant Staphylococcus epidermidis 19-11 assessed as inhibition of visible bacterial growth incubated for 18 hrs by broth microdilution method; format: functional
[9] = tested on: Staphylococcus epidermidis; test: Antibacterial activity against erythromycin-resistant Staphylococcus epidermidis 19-5 assessed as inhibition of visible bacterial growth incubated for 18 hrs by broth microdilution method; format: functional
[10] = tested on: Staphylococcus epidermidis; test: Antibacterial activity against erythromycin-resistant Staphylococcus epidermidis 19-8 assessed as inhibition of visible bacterial growth incubated for 18 hrs by broth microdilution method; format: functional
[11] = tested on: Staphylococcus epidermidis; test: Antibacterial activity against erythromycin-resistant Staphylococcus epidermidis 19-6 assessed as inhibition of visible bacterial growth incubated for 18 hrs by broth microdilution method; format: functional
[12] = tested on: Haemophilus influenzae; test: Antibacterial activity against Haemophilus influenzae HIN 19-15 assessed as inhibition of bacterial growth incubated for 20 to 24 hrs by CLSI based broth microdilution method; format: functional; settings: time 20-24 hrs
[13] = tested on: Staphylococcus epidermidis; test: Antibacterial activity against erythromycin-resistant Staphylococcus epidermidis 19-4 assessed as inhibition of visible bacterial growth incubated for 18 hrs by broth microdilution method; format: functional
[14] = tested on: Haemophilus influenzae; test: Antibacterial activity against Haemophilus influenzae HIN 19-18 assessed as inhibition of bacterial growth incubated for 20 to 24 hrs by CLSI based broth microdilution method; format: functional; settings: HIN 19-18, time 20-24 hrs
[15] = tested on: Moraxella catarrhalis; test: Antibacterial activity against Moraxella catarrhalis BCA 19-5 assessed as inhibition of bacterial growth incubated for 24 hrs by CLSI based broth microdilution method; format: functional
[16] = tested on: Streptococcus pyogenes; test: Antibacterial activity against erythromycin-resistant Streptococcus pyogenes ATCC 19615 assessed as inhibition of visible bacterial growth incubated for 18 hrs by broth microdilution method; format: functional
[17] = tested on: Streptococcus pneumoniae; test: Antibacterial activity against erythromycin-resistant Streptococcus pneumoniae SPN19-13 assessed as inhibition of visible bacterial growth incubated for 18 hrs by broth microdilution method; format: functional
[18] = tested on: Moraxella catarrhalis; test: Antibacterial activity against Moraxella catarrhalis BCA 19-6 assessed as inhibition of bacterial growth incubated for 24 hrs by CLSI based broth microdilution method; format: functional
[19] = tested on: Streptococcus agalactiae; test: Antibacterial activity against erythromycin-resistant Streptococcus agalactiae 19-9 assessed as inhibition of visible bacterial growth incubated for 18 hrs by broth microdilution method; format: functional
[20] = tested on: Streptococcus pneumoniae; test: Potency index, ratio of telithromycin MIC to test compound MIC for antibacterial activity against Streptococcus pneumoniae SPN19-13 assessed as inhibition of visible bacterial growth incubated for 18 hrs by broth microdilution method; format: functional
[21] = tested on: Streptococcus pneumoniae; test: Potency index, ratio of telithromycin MIC to test compound MIC for antibacterial activity against Streptococcus pneumoniae SPN19-14 assessed as inhibition of visible bacterial growth incubated for 18 hrs by broth microdilution method; format: functional
[22] = tested on: Streptococcus pneumoniae; test: Potency index, ratio of telithromycin MIC to test compound MIC for antibacterial activity against Streptococcus pneumoniae SPN19-8 assessed as inhibition of visible bacterial growth incubated for 18 hrs by broth microdilution method; format: functional
[23] = Moraxella catarrhalis, BCA 19-5, 24 h, read-out: MIC
[24] = Moraxella catarrhalis, BCA 19-6, 24 h, read-out: MIC

Row | SMILES | MIC [1] [µg/mL] | MIC [2] [µg/mL] | CC50 at 48 h [3] [µM] | MIC [4] [µg/mL] | MIC [5] [µg/mL] | MIC [6] [µg/mL] | MIC [7] [µg/mL] | MIC [8] [µg/mL] | MIC [9] [µg/mL] | MIC [10] [µg/mL] | MIC [11] [µg/mL] | MIC [12] [µg/mL] | MIC [13] [µg/mL] | MIC [14] [µg/mL] | MIC [15, 23] [µg/mL] | MIC [16] [µg/mL] | MIC [17] [µg/mL] | MIC [18, 24] [µg/mL] | MIC [19] [µg/mL] | Ratio [20] | other results
1 | CC[C@H]1OC(=O)[C@H](C)[C@@H](O[C@H]2C[C@@](C)(OC)[C@@H](O)[C@H](C)O2)[C@H](C)[C@@H](O[C@@H]2O[C@H](C)C[C@H](N(C)C)[C@H]2O)[C@](C)(O)C[C@@H](C)C(=O)[C@H](C)[C@@H](O)[C@]1(C)O [ERYTHROMYCIN] | > 64 | 0.125 (≈ 0.17 µM) | > 100 | 0.5 (≈ 0.681 µM) | > 16 | > 64 | 0.5 (≈ 0.681 µM) | 64 (≈ 87.2 µM) | 0.25 (≈ 0.341 µM) | > 64 | 32 (≈ 43.6 µM) | 8 (≈ 10.9 µM) | > 64 | 8 (≈ 10.9 µM) | > 64 | < 0.03 | > 64 | 64 (≈ 87.2 µM) | 16 (≈ 21.8 µM) | – | –
2 | CC[C@H]1OC(=O)[C@H](C)[C@@H](O[C@H]2C[C@@](C)(OC)[C@@H](O)[C@H](C)O2)[C@H](C)[C@@H](O[C@@H]2O[C@H](C)C[C@H](N(C)C)[C@H]2O)[C@](C)(OC)C[C@@H](C)C(=O)[C@H](C)[C@@H](O)[C@]1(C)O [CLARITHROMYCIN] | > 64 | 0.06 (≈ 0.0802 µM) | > 100 | 0.5 (≈ 0.668 µM) | > 16 | 16 (≈ 21.4 µM) | 0.125 (≈ 0.167 µM) | 16 (≈ 21.4 µM) | 0.25 (≈ 0.334 µM) | > 64 | 64 (≈ 85.6 µM) | 4 (≈ 5.35 µM) | > 64 | 8 (≈ 10.7 µM) | > 64 | < 0.03 | 64 (≈ 85.6 µM) | 32 (≈ 42.8 µM) | 64 (≈ 85.6 µM) | – | –
3 | CC[C@H]1OC(=O)[C@@](C)(F)C(=O)[C@H](C)[C@@H](O[C@@H]2O[C@H](C)C[C@H](N(C)C)[C@H]2O)[C@](C)(OC)C[C@@H](C)C(=O)[C@H](C)[C@H]2N(CCCOC(=O)Nc3ccc(C)cc3)C(=O)O[C@]12C | 0.06 (≈ 0.073 µM) | < 0.03 | 83.2 | < 0.03 | – | 0.125 (≈ 0.152 µM) | – | < 0.03 | < 0.03 | < 0.03 | < 0.03 | 8 (≈ 9.73 µM) | < 0.03 | 8 (≈ 9.73 µM) | 0.03 (≈ 0.0365 µM) | < 0.03 | < 0.03 | – | 0.25 (≈ 0.304 µM) | <4 | MIC ([15]; 24 h): <0.03 µg/mL; Ratio [21]: <4; Ratio [22]: <4
4 | CC[C@H]1OC(=O)[C@@](C)(F)C(=O)[C@H](C)[C@@H](O[C@@H]2O[C@H](C)C[C@H](N(C)C)[C@H]2O)[C@](C)(OC)C[C@@H](C)C(=O)[C@H](C)[C@H]2N(CCCOC(=O)Nc3ccc4c(c3)OCO4)C(=O)O[C@]12C | 0.03 (≈ 0.0352 µM) | < 0.03 | 85.6 | < 0.03 | 8 (≈ 9.39 µM) | 0.125 (≈ 0.147 µM) | – | < 0.03 | < 0.03 | < 0.03 | 0.06 (≈ 0.0704 µM) | 4 (≈ 4.7 µM) | 0.06 (≈ 0.0704 µM) | – | < 0.03 | < 0.03 | < 0.03 | < 0.03 | 0.125 (≈ 0.147 µM) | <4 | Ratio [21]: <4; MIC ([18]; 24 h): 0.06 µg/mL (≈ 0.0704 µM); Ratio [22]: <4
5 | CC[C@H]1OC(=O)[C@H](C)[C@@H](O[C@H]2C[C@@](C)(OC)[C@@H](O)[C@H](C)O2)[C@H](C)[C@@H](O[C@@H]2O[C@H](C)C[C@H](N(C)C)[C@H]2O)[C@](C)(O)C[C@@H](C)CN(C)[C@H](C)[C@@H](O)[C@]1(C)O [AZITHROMYCIN] | 0.25 (≈ 0.334 µM) | 0.5 (≈ 0.668 µM) | > 100 | 4 (≈ 5.34 µM) | > 16 | > 64 | 0.125 (≈ 0.167 µM) | 0.25 (≈ 0.334 µM) | 0.5 (≈ 0.668 µM) | 0.25 (≈ 0.334 µM) | 0.5 (≈ 0.668 µM) | 4 (≈ 5.34 µM) | > 64 | 4 (≈ 5.34 µM) | > 64 | 0.25 (≈ 0.334 µM) | > 64 | > 64 | 0.125 (≈ 0.167 µM) | – | –
6 | CC[C@H]1OC(=O)[C@@](C)(F)C(=O)[C@H](C)[C@@H](O[C@@H]2O[C@H](C)C[C@H](N(C)C)[C@H]2O)[C@](C)(OC)C[C@@H](C)C(=O)[C@H](C)[C@H]2N(CCCOC(=O)Nc3cccs3)C(=O)O[C@]12C | 0.125 (≈ 0.154 µM) | – | > 100 | 0.25 (≈ 0.307 µM) | 8 (≈ 9.83 µM) | 0.5 (≈ 0.614 µM) | 0.06 (≈ 0.0737 µM) | < 0.03 | < 0.03 | 0.06 (≈ 0.0737 µM) | 0.06 (≈ 0.0737 µM) | 4 (≈ 4.91 µM) | 0.25 (≈ 0.307 µM) | 4 (≈ 4.91 µM) | 0.25 (≈ 0.307 µM) | < 0.03 | 0.25 (≈ 0.307 µM) | 0.25 (≈ 0.307 µM) | 1 (≈ 1.23 µM) | <4 | Ratio [21]: <4; Ratio [22]: <4
7 | CC[C@H]1OC(=O)[C@@](C)(F)C(=O)[C@H](C)[C@@H](O[C@@H]2O[C@H](C)C[C@H](N(C)C)[C@H]2O)[C@](C)(OC)C[C@@H](C)C(=O)[C@H](C)[C@H]2N(CCCOC(=O)Nc3cccc(F)c3C)C(=O)O[C@]12C | 0.25 (≈ 0.298 µM) | – | 36.7 | 0.125 (≈ 0.149 µM) | 16 (≈ 19 µM) | 0.5 (≈ 0.595 µM) | 0.06 (≈ 0.0714 µM) | < 0.03 | < 0.03 | 0.06 (≈ 0.0714 µM) | 0.125 (≈ 0.149 µM) | 8 (≈ 9.52 µM) | 0.06 (≈ 0.0714 µM) | 4 (≈ 4.76 µM) | 0.125 (≈ 0.149 µM) | < 0.03 | 0.125 (≈ 0.149 µM) | 0.45 (≈ 0.536 µM) | 0.5 (≈ 0.595 µM) | – | –
